Key:
[1] = system: AGS cells; test: Cytotoxic effect by cell count after 72 h, with and without TTFields
Method: (§1) During the treatment the media of all dishes was replaced every 24 h (“hours”).
(§2) After 72 h of treatment the media and the cells were collected, and cytotoxicity was determined by cell counts.
(§3) Cells were seeded on inovitro dishes and petri dishes 24 h before starting the experiments. Media containing the indicated concentration of each chemotherapy component alone or FOLFOX and control media was added to the cells and the dishes were connected to TTFields (as in SOP-BI-009) or grown in 37° C., 5% CO2 for 72 h. Each treatment included 8 repeats (8 dishes). The media was replaced every 24 h. At the end of the experiment the cells were collected, and cytotoxicity was determined by cell counts, small number of cells were seeded for colonies and the cells (including cells from the media) were stained for Annexin V and 7AAD for apoptosis analysis.
(§4) A TTFields generator (Inovitro systems) was used to apply the treatment to the cells.
(§5) Cytotoxic effect: Average and standard deviation of cell number of at least 5 dishes from each treatment was calculated in Excel software. The averages from these repeats was calculated to averages and standard error and is presented as percent from control (no drug treatment) in XY graph of points with error bars using GraphPed software. Significant was determine by 2-way ANOVA followed Multiple comparison using GraphPed software.

[2] = system: AGS cells
Method: as §1, §2, §3, §4, §5

[3] = system: KATO III cells; test: Overall effect (cytotoxic effect x clonogenic effect); settings: 72 h, one experiment
Method: (§6) After 6-14 days the colonies were fixed, stained and counted to determine clonogenic effect. The overall effect was calculated by multiplying the cytotoxic effect and the clonogenic effect.
(§7) Overall effect: Each colony number was multiply in the percent of cytotoxic effect of its dish and averages and standard deviations of each treatment were calculated in Excel software. […] Significant was determine by 2-way ANOVA followed Multiple comparison using GraphPed software.

[4] = system: AGS cells; test: Apoptosis analysis by Annexin V / 7AAD staining; type: cell-based; settings: for AnnV+ 7AAD+ cell fraction / AnnV+ 7AAD− cell fraction / AnnV− 7AAD+ cell fraction / AnnV− 7AAD− cell fraction: 72 h
Method: (§8) After 72 h of treatment the media and the cells were collected, and cytotoxicity was determined by cell counts. Cells (including cells from the media) were stained for Annexin V and 7AAD for apoptosis analysis. For the testing of the clonogenic effect, cells were seeded for colonies.
as §3
(§9) Apoptotic effect: Average of cell fraction of each marker staining (Annexin V and 7AAD) of at least 5 dishes from each treatment was calculated in Excel software. The averages from these repeats was calculated to averages and is presented in stacked bar graph using GraphPed software.

[5] = system: AGS cells; test: Overall effect (cytotoxic effect x clonogenic effect); type: cell-based; settings: 72 h
Method: as §6, §7

[6] = system: KATO III cells; test: Cytotoxic effect by cell count after 72 h, with and without TTFields
Method: as §1, §2, §3, §4, §5

[7] = system: AGS cells; test: Clonogenic effect (colonies count); type: cell-based; settings: for colonies count: 72 h
Method: (§10) After 72 h of treatment the media and the cells were collected, and cytotoxicity was determined by cell counts. […] For the testing of the clonogenic effect, cells were seeded for colonies.
as §6
(§11) Clonogenic effect: The colonies from each well were counted using ImageJ software. Average and standard deviation of colony number of at least 5 wells from each treatment were calculated in excel software. The averages from these repeats was calculated to averages and standard errors and is presented as percent from control (no drug treatment) in XY graph of points with error bars using GraphPed software. Significant was determine by 2-way ANOVA followed Multiple comparison using GraphPed software.

[8] = system: KATO III cells; test: Apoptosis analysis by Annexin V / 7AAD staining; type: cell-based; settings: for AnnV+ 7AAD+ cell fraction / AnnV+ 7AAD− cell fraction / AnnV− 7AAD+ cell fraction / AnnV− 7AAD− cell fraction: 72 h
Method: as §8, §3, §9

[9] = system: KATO III cells; test: Clonogenic effect (colonies count); settings: for colonies count: 72 h, one experiment;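 for all read-outs here: after treatment, KATO III cells were reseeded and grown 6–14 days, then colonies were fixed, stained and counted, expressed as percent of untreated (no drug) control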
Method: as §10, §6, §11

[10] = system: KATO III cells
Method: as §1, §2, §3, §4, §5

[11] = FOLFOX experiment, 5 uM, + TTFields 150 kHz 1.0 V/cm
[12] = FOLFOX experiment, 5 uM, no TTFields
[13] = 2.5 uM, + TTFields 150 kHz 1.6 V/cm
[14] = 5 uM, + TTFields 150 kHz 1.6 V/cm
[15] = 10 uM, + TTFields 150 kHz 1.6 V/cm
[16] = 0.2 uM, + TTFields 150 kHz 1.0 V/cm, one experiment
[17] = 0.2 uM, no TTFields, one experiment
[18] = 5 uM, + TTFields 150 kHz 1.0 V/cm, one experiment
[19] = 5 uM, no TTFields, one experiment
[20] = 10 uM, + TTFields 150 kHz 1.0 V/cm, one experiment
[21] = 10 uM, no TTFields, one experiment
[22] = 1 uM, + TTFields 150 kHz 1.0 V/cm, one experiment
[23] = 1 uM, no TTFields, one experiment
[24] = 2.5 uM, + TTFields 150 kHz 1.6 V/cm, one experiment
[25] = 2.5 uM, no TTFields, one experiment
[26] = 5 uM, + TTFields 150 kHz 1.6 V/cm, one experiment
[27] = 10 uM, + TTFields 150 kHz 1.6 V/cm, one experiment
[28] = FOLFOX experiment, 10 uM, + TTFields 150 kHz 1.6 V/cm
[29] = FOLFOX experiment, 10 uM, no TTFields

`Nc1nc2c(c(=O)[nH]1)N(C=O)C(CNc1ccc(C(=O)N[C@@H](CCC(=O)O)C(=O)O)cc1)CN2` (stereo partly drawn) [Leucovorin] showed a cell count ([1]; 0.2 uM, + TTFields 150 kHz 1.0 V/cm) of 44 % from control, a cell count ([1]; 0.2 uM, no TTFields) of 88 % from control and a cell count ([1]; 1 uM, + TTFields 150 kHz 1.0 V/cm) of 46.5 % from control. The cell count ([1]; 1 uM, no TTFields) was 84 % from control, the cell count ([1]; 5 uM, + TTFields 150 kHz 1.0 V/cm) was 45 % from control and the cell count ([1]; 5 uM, no TTFields) was 77 % from control. The cell count [1, 11] was 59 % from control, the cell count [1, 12] was 83 % from control and the “cytotoxic effect of drug alone” value [2] was “does not show”. The “overall effect (colonies count multiplying the cytotoxic effect)” value (“overall effect” below) [3, 13] was 32 % from control, the “overall effect” value ([3]; 2.5 uM, no TTFields) was 106 % from control and the “overall effect” value [3, 14] was 35 % from control. For the same compound, the “overall effect” value ([3]; 5 uM, no TTFields) was 81 % from control, the “overall effect” value [3, 15] was 27 % from control and the “overall effect” value ([3]; 10 uM, no TTFields) was 78 % from control. The “AnnV+ 7AAD+ cell fraction” value [4, 16] was 5.34%, the “AnnV+ 7AAD− cell fraction” value [4, 16] was 4.69% and the “AnnV− 7AAD+ cell fraction” value [4, 16] was 2.18%. For the same compound, the “AnnV− 7AAD− cell fraction” value [4, 16] was 87.79%, the “AnnV+ 7AAD+ cell fraction” value [4, 17] was 2.25% and the “AnnV+ 7AAD− cell fraction” value [4, 17] was 3.42%. The “AnnV− 7AAD+ cell fraction” value [4, 17] was 2.19%, the “AnnV− 7AAD− cell fraction” value [4, 17] was 92.14% and the “AnnV+ 7AAD+ cell fraction” value [4, 18] was 5.55%. For the same compound, the “AnnV+ 7AAD− cell fraction” value [4, 18] was 5.61%, the “AnnV− 7AAD+ cell fraction” value [4, 18] was 3.04% and the “AnnV− 7AAD− cell fraction” value [4, 18] was 85.8%. For the same compound, the “AnnV+ 7AAD+ cell fraction” value [4, 19] was 2.29%, the “AnnV+ 7AAD− cell fraction” value [4, 19] was 4.12% and the “AnnV− 7AAD+ cell fraction” value [4, 19] was 1.02%. The “AnnV− 7AAD− cell fraction” value [4, 19] was 92.57%, the “AnnV+ 7AAD+ cell fraction” value [4, 20] was 3.74% and the “AnnV+ 7AAD− cell fraction” value [4, 20] was 6.27%. The “AnnV− 7AAD+ cell fraction” value [4, 20] was 2.72%, the “AnnV− 7AAD− cell fraction” value [4, 20] was 87.27% and the “AnnV+ 7AAD+ cell fraction” value [4, 21] was 2.84%. The “AnnV+ 7AAD− cell fraction” value [4, 21] was 5.62%, the “AnnV− 7AAD+ cell fraction” value [4, 21] was 1.01% and the “AnnV− 7AAD− cell fraction” value [4, 21] was 90.54%. The “AnnV+ 7AAD+ cell fraction” value [4, 11] was 10.2%, the “AnnV+ 7AAD− cell fraction” value [4, 11] was 6.6% and the “AnnV− 7AAD+ cell fraction” value [4, 11] was 2.4%. For the same compound, the “AnnV− 7AAD− cell fraction” value [4, 11] was 80.7%, the “AnnV+ 7AAD+ cell fraction” value [4, 12] was 4.3% and the “AnnV+ 7AAD− cell fraction” value [4, 12] was 5.3%. The “AnnV− 7AAD+ cell fraction” value [4, 12] was 2.6%, the “AnnV− 7AAD− cell fraction” value [4, 12] was 87.7% and the “apoptotic effect of drug alone” value ([4]; without TTFields) was “does not show”. The “overall effect” value [5, 16] was 42.9 % from control, the “overall effect” value [5, 17] was 86.6 % from control and the “overall effect” value [5, 22] was 36.7 % from control. The “overall effect” value [5, 23] was 89.7 % from control, the “overall effect” value [5, 18] was 41.7 % from control and the “overall effect” value [5, 19] was 88.8 % from control. For the same compound, the “overall effect” value [5, 11] was 41 % from control, the “overall effect” value [5, 12] was 88 % from control and the cell count [6, 24] was 58 % from control. The cell count [6, 25] was 106 % from control, the cell count [6, 26] was 51 % from control and the cell count [6, 19] was 107 % from control. It also gave a cell count [6, 27] of 47 % from control, a cell count [6, 21] of 90 % from control and a cell count ([6]; FOLFOX experiment, 5 uM, + TTFields 150 kHz 1.6 V/cm) of 49 % from control. The cell count [6, 12] was 102 % from control, the colonies count [7, 16] was 70 % from control and the colonies count [7, 17] was 88 % from control. It also gave a colonies count [7, 22] of 77 % from control, a colonies count [7, 23] of 87 % from control and a colonies count [7, 18] of 70 % from control. It also gave a colonies count [7, 19] of 95 % from control, a colonies count [7, 11] of 69 % from control and a colonies count [7, 12] of 103 % from control. For the same compound, the “clonogenic effect of drug alone” value ([7]; without TTFields) was “does not show”, the “AnnV+ 7AAD+ cell fraction” value [8, 24] was 18.45% and the “AnnV+ 7AAD− cell fraction” value [8, 24] was 39.43%. The “AnnV− 7AAD+ cell fraction” value [8, 24] was 0.3%, the “AnnV− 7AAD− cell fraction” value [8, 24] was 41.82% and the “AnnV+ 7AAD+ cell fraction” value [8, 25] was 8.51%. The “AnnV+ 7AAD− cell fraction” value [8, 25] was 24.86%, the “AnnV− 7AAD+ cell fraction” value [8, 25] was 0.06% and the “AnnV− 7AAD− cell fraction” value [8, 25] was 66.57%. The “AnnV+ 7AAD+ cell fraction” value [8, 26] was 25.55%, the “AnnV+ 7AAD− cell fraction” value [8, 26] was 36.56% and the “AnnV− 7AAD+ cell fraction” value [8, 26] was 0.2%. The “AnnV− 7AAD− cell fraction” value [8, 26] was 37.69%, the “AnnV+ 7AAD+ cell fraction” value [8, 19] was 9.4% and the “AnnV+ 7AAD− cell fraction” value [8, 19] was 36.5%. For the same compound, the “AnnV− 7AAD+ cell fraction” value [8, 19] was 0.12%, the “AnnV− 7AAD− cell fraction” value [8, 19] was 53.98% and the “AnnV+ 7AAD+ cell fraction” value [8, 27] was 28.48%. For the same compound, the “AnnV+ 7AAD− cell fraction” value [8, 27] was 35.82%, the “AnnV− 7AAD+ cell fraction” value [8, 27] was 0.4% and the “AnnV− 7AAD− cell fraction” value [8, 27] was 35.3%. For the same compound, the “AnnV+ 7AAD+ cell fraction” value [8, 21] was 12.64%, the “AnnV+ 7AAD− cell fraction” value [8, 21] was 39.85% and the “AnnV− 7AAD+ cell fraction” value [8, 21] was 1.01%. For the same compound, the “AnnV− 7AAD− cell fraction” value [8, 21] was 46.5%, the “AnnV+ 7AAD+ cell fraction” value [8, 28] was 33.83% and the “AnnV+ 7AAD− cell fraction” value [8, 28] was 18.24%. The “AnnV− 7AAD+ cell fraction” value [8, 28] was 1.32%, the “AnnV− 7AAD− cell fraction” value [8, 28] was 46.62% and the “AnnV+ 7AAD+ cell fraction” value [8, 29] was 24.39%. The “AnnV+ 7AAD− cell fraction” value [8, 29] was 12.36%, the “AnnV− 7AAD+ cell fraction” value [8, 29] was 0.80% and the “AnnV− 7AAD− cell fraction” value [8, 29] was 62.46%. The “apoptotic effect of drug alone” value ([8]; without TTFields) was “does not show”, the colonies count [9, 13] was 60 % from control and the colonies count ([9]; 2.5 uM, no TTFields) was 100 % from control. It also gave a colonies count [9, 14] of 68 % from control, a colonies count ([9]; 5 uM, no TTFields) of 79 % from control and a colonies count [9, 15] of 62 % from control. For the same compound, the colonies count ([9]; 10 uM, no TTFields) was 91 % from control, the “clonogenic effect of drug alone” value ([9]; without TTFields) was “does not show” and the “cytotoxic effect of drug alone” value [10] was “does not show”.
